Experimental data taken from US20190167771A1, “CONTROL ANGIOGENESIS BY REGULATING PHOSPHORYLATION OF SERYL-tRNA SYNTHETASE (SerRS)” (The Scripps Research Institute, priority 2016, published 2019).

Assays:
3B11 endothelial cells = assay: Matrigel plug angiogenesis assay with stably transfected 3B11 cells; type: in vivo; conditions: 3B11 cells stably transfected with mouse SerRS gene, C3H/HeJ mice, 14 days
Method: In FIG. 4A, mouse 3B11 endothelial cells were stably transfected with mouse wild type SerRS or mutant SerRS and the expression of SerRS were examined by immunoblot with anti-SerRS antibody and quantified by the density of the bands. In FIGS. 4B-C, Matrigel plug angiogenesis assay was performed with stably transfected 3B11 cells in C3H/HeJ mice. Matrigel plugs (dash lines enclosed regions) excised 14 days after implantation were analyzed by immunohistochemistry for CD31 (FIG. 4B) and microvessel density was quantified (FIG. 4C) (n=10-15).
A total of 10^6 of stably transfected 3B11 cells were resuspended in 100 μl of DMEM medium supplemented with 10% FBS and then mixed with 200 μl of ice-cold matrigel (BD Biosciences, San Jose, Calif., USA) liquid on ice. The 300 μl of cell and matrigel mixture was injected subcutaneously into a flank of C3H/HeJ mice (two injection sites per mouse and 5-6 mice in each group) (Jackson Laboratory). After inoculation for 14 days, the matrigel plugs were excised and frozen in Tissue-Tek® OCT compound for cryostat sectioning. All the mouse experiments were conducted according to the guidelines established by the Institutional Animal Care and Use Committee (IACUC) at The Scripps Research Institute, IACUC approval protocol number 13-0003.
5-μm sections from freshly frozen tumor xenograft and matrigel plugs were treated with acetone and 3% H2O2 to block endogenous peroxidase. After 3-5 times wash and goat serum block, the sections were incubated with an anti-CD31 antibody (1:3000; Cell Signaling Technology) overnight at 4° C. The blood vessels were counted in 5-10 random viable fields (120×) in tumor xenograft samples and microvessel density in matrigel plugs was quantified by measuring the CD31 staining density using Image J software. To detect the hypoxia, we incubated the slides with anti-HIF1α antibody (1:100; Novus Biologicals).
A matrigel plug angiogenesis assay was used. […] At the same time, the microvasculature in the plug was evaluated by CD31 immuno-staining.

zebrafish embryos = assay: Intersegmental vessel (ISV) branching in zebrafish embryos; type: in vivo; conditions: human SerRS mRNA co-injected with SerRS-MO, 3 dpf
Method: In FIG. 2A, wild type SerRS (SerRS^WT), its mutants with double substitutions of serine 101 and 241 with alanine or aspartic acid residues (SerRS^S101A/S241A and SerRS^S101D/S241D), or empty vector were transfected into HEK293 cells. The expression levels of SerRS proteins was measured by immunoblot (bottom) and VEGFA expression was determined by qRT-PCR (means±SEM from three independent experiments; ***P<0.0001). In FIGS. 2B-D, the roles of SerRS^S101A/S241A and SerRS^S101D/S241D in regulating vascular development in vivo in zebrafish were examined by co-injection of SerRS^S101A/S241A and SerRS^S101D/S241D mRNAs into one-cell-stage embryos whose endogenous SerRS was knocked down by injection of antisense morpholino (SerRS-MO) that led to abnormal high expression of Vegfa and hypervascularization (shown by short bold arrows in FIG. 2C). At 3 day post fertilization (dpf), embryos were harvested and Vegfa expression levels were measured by qRT-PCR (means±SEM, n=125-211; *P<0.01, **P<0.001) (B). The development of intersegmental vessel (ISV) at 3 dpf was examined (C) and the statistics of ISV abnormal branching rescued by SerRS^WT or mutant SerRS mRNA injections was analyzed (D; χ^2-test,* P>0.05 vs SerRS^WT, **P>0.1 vs SerRS-MO, ***P<1×10^−28 vs control-MO). In FIG. 2E, the binding affinities of SerRS^WT or SerRS^S101D/S241D with ^32P labeled DNA fragments corresponding to SerRS binding site on human VEGFA promoter were examined by EMSA. In FIG. 2F, the binding of SerRS^WT, SerRS^S101A/S241A, or SerRS^S101D/S241D on VEGFA promoter in HEK293 cells was examined by chromatin immunoprecipitation (ChIP) and qPCR (means±SEM from two independent experiments; ***P<0.0001). In FIG. 2G, the binding of endogenous SerRS on VEGFA promoter during hypoxia course was monitored by ChIP (means±SEM from three independent experiments; *P<0.05, **P<0.005 vs normal).
Transgenic Tg (Fli1a: EGFP) fish were maintained as we described before (Ref). The fish embryos were kept at 28.5° C. before and after microinjection. The antisense morpholino (MOs) targeting SerRS was injected into the yolk of 1-cell stage embryos at the dosage of 4˜5 ng per embryo. The sequence of SerRS-MO is (Ref). The SerRS-MO (5′ AGGAGAATGTGAACAAACCTGACAC 3′ (SEQ ID NO: 34)) and standard control MO (5′ CCTCTTACCTCAGTTACAATTTATA 3′ (SEQ ID NO: 35)) were purchased from Gene Tools, LLC (Philomath, Oreg. USA). After injection, embryos were incubated in E3 embryo medium supplemented with 0.003% 1-phenyl-2-thiourea (PTU) at 28.5° C. to prevent pigment formation. […] The rescue effects of different SerRS mutants on ISV development were analyzed with χ^2 test. […]

| Substance | microvessel formation in the matrigel plug (CD31) (3B11 endothelial cells) | zebrafish embryos with abnormal hyper-ISV branching phenotype (zebrafish embryos) |
| --- | --- | --- |
| SerRS^S101A/S241A: phosphorylation-deficient human SerRS double mutant, serine 101 and 241 to alanine, SEQ ID NO: 4 (mouse version in matrigel assay) | strongly suppressed the microvessel formation | 26.4% |
| SerRS^S101D/S241D: SerRS with double substitutions of S101 and S241 with aspartic acid, mimics the phosphorylated SerRS | did not suppress microvascular formation | 62.7% |
| SerRS^WT: wildtype human seryl-tRNA synthetase protein, SEQ ID NO: 1 (mouse wild type used in the 3B11 matrigel assay) | did not suppress microvascular formation | 17.9% |
